{"source": "ChEMBL document CHEMBL3525934", "about": "(Drug Metab Dispos, 2013)", "format_in_all_cases": "ADME", "conditions_in_all_cases": "0.5 h", "key": {"Cytochrome P450 1A2": {"biological_target": "T1, Cytochrome P450 1A2 (Homo sapiens, UniProt P05177)", "T1 sequence (P05177 whole entry)": "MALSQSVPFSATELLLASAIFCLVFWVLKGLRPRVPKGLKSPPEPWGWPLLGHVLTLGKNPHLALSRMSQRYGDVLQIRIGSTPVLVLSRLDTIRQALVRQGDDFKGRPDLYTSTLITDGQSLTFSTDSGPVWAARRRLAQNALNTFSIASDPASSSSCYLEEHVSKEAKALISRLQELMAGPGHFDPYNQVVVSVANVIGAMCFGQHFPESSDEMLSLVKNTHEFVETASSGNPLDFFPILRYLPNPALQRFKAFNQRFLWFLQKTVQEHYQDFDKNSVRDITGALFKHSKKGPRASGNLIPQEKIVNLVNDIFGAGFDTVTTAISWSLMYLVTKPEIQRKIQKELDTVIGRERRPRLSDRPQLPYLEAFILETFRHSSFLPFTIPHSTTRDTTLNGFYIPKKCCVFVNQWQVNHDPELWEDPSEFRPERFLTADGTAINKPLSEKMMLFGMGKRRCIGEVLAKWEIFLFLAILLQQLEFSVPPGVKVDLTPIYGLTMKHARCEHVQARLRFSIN", "assay": "Drug metabolism in supersomes expressing human recombinant CYP1A2 assessed as enzyme-mediated clozapine-N-oxide metabolite formation at 10 uM after 30 mins measured per nmol of P450 by HPLC analysis"}, "Cytochrome P450 1A1 [1]": {"biological_target": "T2, Cytochrome P450 1A1 (Homo sapiens, UniProt P04798)", "T2 sequence (P04798 whole entry)": "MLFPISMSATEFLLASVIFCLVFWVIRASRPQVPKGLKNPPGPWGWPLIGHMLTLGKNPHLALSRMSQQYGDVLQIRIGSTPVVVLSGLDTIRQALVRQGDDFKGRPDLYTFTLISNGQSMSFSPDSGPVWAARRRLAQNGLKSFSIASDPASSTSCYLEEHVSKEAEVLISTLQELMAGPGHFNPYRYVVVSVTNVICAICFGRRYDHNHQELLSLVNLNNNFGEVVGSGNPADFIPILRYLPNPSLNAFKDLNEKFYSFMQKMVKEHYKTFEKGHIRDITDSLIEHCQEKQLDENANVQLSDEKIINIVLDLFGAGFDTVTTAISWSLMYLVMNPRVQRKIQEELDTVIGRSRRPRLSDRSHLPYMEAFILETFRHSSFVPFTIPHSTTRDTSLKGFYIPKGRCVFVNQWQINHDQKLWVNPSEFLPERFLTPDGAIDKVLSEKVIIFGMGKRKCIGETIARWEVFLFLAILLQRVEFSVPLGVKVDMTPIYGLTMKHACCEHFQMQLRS", "assay": "Drug metabolism in supersomes expressing human recombinant CYP1A1 assessed as enzyme-mediated N-desmethylclozapine metabolite formation at 10 uM after 30 mins measured per nmol of P450 by HPLC analysis"}, "Cytochrome P450 1A1 [2]": {"biological_target": "T2, Cytochrome P450 1A1", "assay": "Drug metabolism in supersomes expressing human recombinant CYP1A1 assessed as enzyme-mediated clozapine-N-oxide metabolite formation at 10 uM after 30 mins measured per nmol of P450 by HPLC analysis"}}}
{"smiles": "CN1CCN(C2=Nc3cc(Cl)ccc3Nc3ccccc32)CC1", "note": "[CLOZAPINE]", "values": [{"measurement": "Drug metabolism", "setting": "Cytochrome P450 1A2", "result": 0.55, "unit": "nmol/min/nmol P450"}, {"measurement": "Drug metabolism", "setting": "Cytochrome P450 1A1 [1]", "result": 0.64, "unit": "nmol/min"}, {"measurement": "Drug metabolism", "setting": "Cytochrome P450 1A1 [2]", "result": 0.24, "unit": "nmol/min"}]}
